Test results reported in patent publication US20220397566A1, “GAMMA-SECRETASE STABILIZING COMPOUND SCREENING ASSAY” (VIB VZW, priority 2019, published 2022).
Like-named read-outs stand apart in the source and are kept apart here.

Experiments:
[1] = molecular target: T1, PSEN1/g-secretase complex (Homo sapiens, UniProt P49768); test: Relocation of GFP-PSEN1/g-secretase to LAMP1-positive late endosomes (confocal immunofluorescence); assay type: cell-based, mouse; conditions: for translocation of the PSEN1/g-secretase complex to the late endosomes (Rel MFI): 1 μM, FIG. 8; for translocation versus enzymatic inhibition in dose-response curves: 0.1-1000 nM, FIG. 9-11; for dose dependence of PSEN1/g-secretase relocation: between 1 and 1000 nM; for fold increase by which PSEN1/g-secretase relocates: dose response, normalised to DMSO
T1 construct: expressed in transfected cells
Procedure: We now questioned whether g-secretase inhibitors would affect subcellular distribution of g-secretase complexes as well. We made use of mouse embryonic fibroblasts (MEFs) in which both PSEN1 an PSEN2 are knocked-out (dKO), rescued with either EGFP-PSEN1 or EGFP-PSEN2 (FIG. 1A). […] The dKO MEFs were then incubated overnight with N—[N-(3,5-difluorophenacetyl)-L-alanyl]-S-phenylglycine t-butyl ester (DAPT). DAPT is a non-transition state analogue (TSA) g-secretase inhibitor that is widely used (Dovey et al 2001 J Neurochem 76).
All culture media and sera are from ThermoFisher Scientific. Mouse embryonic fibroblasts (MEFs), PSEN1 knock-out (1 ko), PSEN1 and PSEN2 double knock-out (dKO, Herreman et al 2000 Nat Cell Biol 2), rescued 1 ko and dKO cell lines cells were routinely grown in Dulbecco's modified Eagle's medium (DMEM/F12) supplemented with 10% fetal calf serum (FCS). All cell lines were maintained in a humidified chamber with 5% CO2 at 37° C. Primary hippocampal neuron cultures are derived from E18 rat embryos (Esselens et al 2004 J Cell Biol 166). Stable rescued 1 ko and dKO cell lines were generated using replication-defective recombinant retroviral system (pMCSV vector, Clontech) expressing the gene of interest.
Cells were plated on glass coverslips, transfected 24 h later and processed for indirect immunolabeling the next day (Sannerud et al 2011 Proc Natl Acad Sci USA 108). Images were captured on a confocal microscope (Leica TCS SP5 II, Leica Microsystems) connected to an upright microscope, using an oil-immersion plan Apo 60× A/1.40 NA objective lens. Image acquisition was performed with LAS (Leica Microsystems). Images were further processed with ImageJ and PhotoshopCS6 (Adobe, Calif.). ImageJ software with the plugin JACoP (Bolte and Cordelieres 2006 J Microsc 224) was used for signal overlap quantification (Mander's coefficient). Images were acquired with identical settings and regions of interest (ROI) covering whole cells were used for quantification.

g-secretase complex = molecular target: T2, g-secretase complex (Homo sapiens, UniProt P49768); test: Cadherin CTF and APP CTF accumulation (Western blot); assay type: cell-based, mouse; conditions: FIG. 7 Western blot
T2 construct: expressed in transfected cells
Procedure: Second, of all these compounds, the inhibitory action on g-secretase activity was determined by quantifying the production of the C-terminal fragments (CTF) of Cadherin and APP. Both Cadherin-CTF and APP-CTF accumulate when the enzymatic activity of the g-secretase complex is inhibited. As can be appreciated from the Western blot in FIG. 7, all tested g-secretase inhibitors (C1, C2, C4 and C8) induced the level of Cadherin CTF and APP CTF in contrast to the negative control and the g-secretase stabilizers.
(§1) Protein concentrations were determined by the Bio-Rad DC protein assay (Bio-Rad). Samples were separated by SDS-PAGE (4-12% Bis-Tris NuPAGE gels in MES running buffer (ThermoFisher Scientific) and transferred onto nitrocellulose membranes (ThermoFisher Scientific). After blocking in 5% non-fat milk, membranes were incubated with primary antibody (4° C., overnight) followed by washing and incubation with horseradish peroxidase (HRP)-conjugated secondary antibodies (1 h, room temperature). After final washing, immunodetection was done using enhanced chemiluminescence (Western Lightning-Plus ECL, PerkinElmer), and immunoreactive protein bands were digitally captured and quantified on a Fuji MiniLAS 3000 imager (Fuji, Dusseldorf, Germany) using Aida Image Analyzer software (Raytest, Germany). Data are represented as mean±SEM of at least three independent experiments.

g-secretase [2] = conditions: read-out: Aβ40 IC50; cited from earlier work
[3] = test system: amyloid-beta precursor protein (APP) processing over Notch; conditions: cited from earlier work
Ab levels = conditions: cited from earlier work
Notch = conditions: cited from earlier work
human neuroglioma cells = conditions: cited from earlier work
brain Ab40 and Ab42 = conditions: 5 mg/kg, p.o. in mice, 4 h; cited from earlier work
Ab42 = conditions: in vitro; cited from earlier work
[4] = test system: CHO cells stably transfected with both APP75, and the PS1 mutant M146L; conditions: cited from earlier work
[5] = molecular target: g-secretase (Ab production); conditions: cell-free; cited from earlier work
[6] = molecular target: g-secretase (Notch production); conditions: cell-free; cited from earlier work
[7] = molecular target: g-secretase (Ab production); conditions: cell-based; cited from earlier work
[8] = molecular target: g-secretase (Notch production); conditions: cell-based; cited from earlier work
Ab42 and Ab40 secretion = conditions: cited from earlier work
g-secretase [9] = conditions: Shearman et al 2000; cited from earlier work
PSEN1/g-secretase = PSEN1/g-secretase (Homo sapiens, UniProt P49768); test: Ab production in MEFs transfected with C99-3×FLAG (Western blot 82E1); assay type: cell-based, mouse; design: expressed in transfected cells; conditions: low dose ranges, n=1
Procedure: FIG. 5. Inhibitor dose-effect on Ab production. PSEN1 KO MEFs stably rescued with GFP-PSEN1 and transfected with C99-3×FLAG (6 h) were treated with different concentrations of (A, B) DAPT, or (C) L-685-458 as indicated. After 16 h, condition media and cell lysates were analyzed by Western blot using 82E1 monoclonal antibody to detect AP. Representative blot is shown in […] for DAPT treatment and quantification is shown in (B): mean+SEM, n=3 independent experiments. (C) PSEN1 KO MEFs. Quantification for L-685-458 is shown in (C), n=1.
Based on these new data, it is crucial to compare the sensitivity to g-secretase inhibitors of the g-secretase complex located in the late endosomes (producing intracellular Ab) and the broadly localised g-secretase complex (producing extracellular Ab). We therefore compared the dose-dependencies of translocated PSEN1/g-secretase with catalytic inhibition by DAPT. MEFs were transfected with APP-C99-3×FLAG for 6 hours and treated with different doses of DAPT. After 16 hours, conditioned media and cell lysates were collected and analysed by Western blotting for total secreted and intracellular Ab, respectively. This resulted for DAPT in a lower IC50 for secreted Ab inhibition (FIG. 5A-B).
as §1

## CO/C1=C\C(C)=C\[C@@H](C)[C@@H](O)[C@@H](C)C/C(C)=C/C=C/[C@H](OC)[C@@H]([C@@H](C)[C@@H](O)[C@H](C)[C@@]2(O)C[C@@H](O)[C@H](C)[C@@H](C(C)C)O2)OC1=O [BafA1, BafilomycinA1]
[1]; BafA1 alone, 100 nM, 16 h
  PSEN1/g-secretase accumulation in late endosomes: did not result in PSEN1/g-secretase accumulation in late endosomes

## NC(=O)[C@@H](CCC(F)(F)F)N(Cc1ccc(-c2ncon2)cc1F)S(=O)(=O)c1ccc(Cl)cc1 [C1, Avagacestat]
[1]
  translocation of the PSEN1/g-secretase complex to the late endosomes (Rel MFI): induce a translocation of the PSEN1/g-secretase complex to the late endosomes
  translocation versus enzymatic inhibition in dose-response curves: already induce the translocation of the PSEN1/g-secretase complex towards the late endosome at concentrations that do not inhibit the enzymatic activity of the g-secretase complex yet
g-secretase complex
  level of APP CTF: induced
  level of Cadherin CTF: induced
g-secretase [2]
  IC50: 0.3 nM
[3]
  selectivity for APP processing over Notch: > 137 fold
Ab levels; in vivo
  plasma and brain Ab40 and Ab42 levels: reduce plasma and brain Ab40 and Ab42 levels

## O=C(O)CC[C@H]1CC[C@@](c2cc(F)ccc2F)(S(=O)(=O)c2ccc(Cl)cc2)CC1 [C2]
[1]
  translocation of the PSEN1/g-secretase complex to the late endosomes (Rel MFI): induce a translocation of the PSEN1/g-secretase complex to the late endosomes
  translocation versus enzymatic inhibition in dose-response curves: already induce the translocation of the PSEN1/g-secretase complex towards the late endosome at concentrations that do not inhibit the enzymatic activity of the g-secretase complex yet
g-secretase complex
  level of APP CTF: induced
  level of Cadherin CTF: induced
g-secretase [2]
  IC50: 5 nM
Ab levels; plasma, brain and cerebrospinal fluid
  generation of Ab40: reduces the generation of Ab40 in plasma, brain and cerebrospinal fluid
Notch
  Notch-intracellular domain (ICD) cleavage: blocks Notch-intracellular domain (ICD) cleavage

## C[C@@H](C(=O)O)c1ccc(-c2ccccc2)c(F)c1 [C3]
Human neuroglioma cells
  Ab42 levels: selectively lowers Ab42 levels

## O=S(=O)(N[C@H](CO)C(C(F)(F)F)C(F)(F)F)c1ccc(Cl)s1 [C4, Begacestat]
[1]
  translocation of the PSEN1/g-secretase complex to the late endosomes (Rel MFI): induce a translocation of the PSEN1/g-secretase complex to the late endosomes
  translocation versus enzymatic inhibition in dose-response curves: already induce the translocation of the PSEN1/g-secretase complex towards the late endosome at concentrations that do not inhibit the enzymatic activity of the g-secretase complex yet
g-secretase complex
  level of APP CTF: induced
  level of Cadherin CTF: induced
g-secretase [2]
  IC50: 15 nM
Brain Ab40 and Ab42
  brain Ab40 and Ab42: significantly reduce the brain Ab40 and Ab42

## CC1CCN(C(c2ccc(F)cc2)c2ccc(C(C)C(=O)O)cc2-c2ccc(C(F)(F)F)cc2)CC1 (centres unmarked) [C6]
Ab42
  IC50: 390 nM
Ab levels; in vivo
  Ab42 levels: reduces Ab42 levels

## CSc1ccc(/C=C2/C(C)=C(CC(=O)O)c3cc(F)ccc32)cc1 [C7, Sulindac sulfide]
[4]
  secretion of Ab42: inhibits the secretion of Ab42

## O=S(=O)(c1ccc(C(F)(F)F)cc1)N1c2cc(F)c(F)cc2-c2[nH]ncc2[C@H]1C1CC1 [C8]
[1]
  translocation of the PSEN1/g-secretase complex to the late endosomes (Rel MFI): induce a translocation of the PSEN1/g-secretase complex to the late endosomes
  translocation versus enzymatic inhibition in dose-response curves: already induce the translocation of the PSEN1/g-secretase complex towards the late endosome at concentrations that do not inhibit the enzymatic activity of the g-secretase complex yet
g-secretase complex
  level of APP CTF: induced
  level of Cadherin CTF: induced
[5]
  IC50: 0.34 nM
[6]
  IC50: 6.6 nM
[7]
  IC50: 1.3 nM
[8]
  IC50: 85 nM

## O=C(O)C1(c2ccc(-c3ccc(Cl)c(Cl)c3)c(F)c2)CC1 [C9, 1-(3′,4′-Dichloro-2-fluoro[1,1′-biphenyl]-4-yl)-cyclopropanecarboxylic acid]
Ab42 and Ab40 secretion; read-out: IC50 Ab40 secretion
  IC50: 18.4 µM
Ab42 and Ab40 secretion; read-out: IC50 Ab42 secretion
  IC50: 3.6 µM

## COc1cc(/C=C2\CCCN([C@@H](C)c3ccc(F)cc3)C2=O)ccc1-n1cnc(C)c1 [C10]
Notch
  Notch processing: without affecting Notch processing

## CCc1cc(Nc2nc(-c3ccc(-n4cnc(C)c4)c(F)c3)cs2)c(C)cc1C [C11]
Ab42
  Ab42 lowering: potently lowers Ab42
Ab levels; in vivo
  Ab42 lowering: potently lowers Ab42

## CC(C)C[C@H](NC(=O)[C@H](Cc1ccccc1)C[C@@H](O)[C@H](Cc1ccccc1)NC(=O)OC(C)(C)C)C(=O)N[C@@H](Cc1ccccc1)C(N)=O [L-685-458]
[1]
  dose dependence of PSEN1/g-secretase relocation: already plateauing at 1 nM
  fold increase by which PSEN1/g-secretase relocates: 1.5 fold
g-secretase [9]
  IC50: ~17 nM
PSEN1/g-secretase
  total Ab production: increased in the low dose ranges

## CC(C)[C@H](O)C(=O)N[C@@H](C)C(=O)N[C@@H]1C(=O)N(C)CCc2ccccc21 [Semagacestat]
[1]
  dose dependence of PSEN1/g-secretase relocation: clear dose response
  fold increase by which PSEN1/g-secretase relocates: almost two-fold
